Here are results for three compounds from patent publication US20050002943A1, “Amp-kinase agonists or adenosine pro-drugs as immuno-stimulating agents” (priority 2001, published 2005).

SMILES strings stand for the structures. “Also recorded” adds a separate entry of the source.

Series [1] has as its system BALB/c mice. In words: Antigen (NP)-specific antibody response to NP-KLH, serum ELISA (Example 1). It is filed as in vivo. How it is done: BALB/c mice were injected intraperitoneally with 200 μl of saline, aqueous solution (phosphate buffer solution), or with 200 μl of phosphate buffer solution containing AICA-riboside (10 mg), NP-KLH (100 μg) or NP-KLH (100 μg)+AICA-riboside (10 mg). Height days after immunization, mice were bled and serum levels of antigen (NP)-specific antibodies were determined by ELISA according to standard procedure using isotype-specific reagents.
A general note: ELISA stands for enzyme-linked immunosorbent assay.

The subject of series [2] is BALB/c mice. Briefly: Primary, secondary and day 120 Ars-specific antibody response to Ars-KLH, serum ELISA (Examples 2 and 3). It is filed as in vivo. How it is done: Three groups of BALB/c mice received an intraperitoneal injection of Ars-KLH (100 μg), Ars-KLH (100 μg)+AICA-riboside (10 mg) or Ars-KLH (100 μg)+Alum (50 μl). 21 days after immunization, mice were bled and serum levels of antigen (Ars)-specific antibodies were determined by ELISA as previously described (primary response). On day 22, all mice received a second injection (boost) of Ars-KLH (100 μg) i.p. Mice were bled 8 days after the antigen boost and serum levels of Ars-specific antibodies were determined by ELISA (secondary response). The results are illustrated in FIG. 2.
Mice immunized according to the protocol described in example 2 were bled 120 days after the first encounter with the antigen (in the presence or absence of adjuvant) and serum levels of antigen specific antibodies were determined by ELISA as described previously (secondary response, day 120).

Series [3] concerns BALB/c mice. In words: Primary and secondary antibody response to human gamma globulins (HGG), serum ELISA (Example 4). The following applies: HGG 15 μg + AICA-riboside 10 mg i.p., boost day 25. The series is classed as in vivo. How it is done: BALB/c mice received an intraperitoneal injection of HGG (15 μg) or HGG (15 μg)+AICA-riboside (10 mg). 16 days after immunization, mice were bled and serum levels of HGG-specific antibodies were determined by ELISA as described. On day 25, the two groups of mice received respectively a boost of HGG (15 μg) and of HGG (15 μg)+AICA-riboside (10 mg) intraperitoneally. Mice were bled 10 days after the boost and serum levels of HGG-specific antibodies were determined by ELISA as described previously (secondary response). The results are illustrated in FIG. 4.

For series [4], the system named is BALB/c mice. Briefly: Ars-KLH antibody response over a range of AICA-riboside doses (Example 5). It is filed as in vivo. The settings on record: AICA-riboside 3 to 0.3 mg i.p. with Ars-KLH 100 μg; primary and secondary response. How it is done: BALB/c mice received an intraperitoneal injection of Ars-KLH (100 μg) or Ars-KLH (100 μg)+AICA-riboside at concentrations ranging from 3 to 0.3 mg. 21 days after immunization, mice were bled and serum levels of antigen (Ars)-specific antibodies were determined by ELISA according to standard procedure using isotype-specific reagents (primary response). On day 22, all mice received a boost of Ars-KLH (50 μg) intraperitoneally. Mice were bled 14 days after the antigen boost and serum levels of Ars-specific antibodies were determined by ELISA as described previously (secondary response). The results are illustrated in FIG. 5.

Series [5] has as its system BALB/c mice. In words: Ars-KLH antibody response, timing of AICA-riboside injection relative to antigen (Example 6). The series is classed as in vivo. The following applies: AICA-riboside 10 mg i.p. at d-1, d0 or d+1, separate site from Ars-KLH 100 μg. How it is done:
BALB/c mice received an intraperitoneal injection of AICA-riboside (10 mg) one day before (d-1), the same day (d0) or the day after (d+1) the intraperitoneal injection (in a separate site) of Ars-KLH (100 μg). A fourth group (n.t.) received an intraperitoneal injection of phosphate buffer solution the day of the antigen administration. 20 days after immunization, mice were bled and serum levels of Ars-specific antibodies were determined by ELISA according to standard procedures using isotype-specific reagents (primary response). On day 21, all mice received a boost of Ars-KLH (50 μg) intraperitoneally. Mice were bled 14 days after the antigen boost and serum levels of Ars-specific antibodies were determined by ELISA as described previously (secondary response).

In series [6] the test system is BALB/c mice. In words: NP-KLH antibody response in anti-CD4 treated mice (Example 7). The following applies: anti-CD4 (GK1.5) treated mice; NP-KLH 100 μg + AICA-riboside 10 mg i.p.; day 10. The series is classed as in vivo. How it is done:
BALB/c mice, were treated or not with anti-CD4 antibodies (two intraperitoneal injections of 200 μl of the depleting rat anti-mouse anti-CD4 antibody, clone GK1.5, on days 0 and 5). On day 2 mice were injected intraperitoneally with NP-KLH (100 μg) or NP-KLH (100 μg)+AICA-riboside (10 mg). 10 days after immunization, mice were bled and serum levels of NP-specific antibodies were determined by ELISA according to standard procedures using isotype specific reagents.

Series [7] relates to BALB/c mice. Briefly: Size of draining lymph nodes after footpad injection (Example 8). It is filed as in vivo. The settings on record: rear footpad injection with NP-KLH 25 μg; AICA-riboside 2.5 mg or Alum 12.5 μg; 8 days. How it is done:
BALB/c mice were injected with NP-KLH (25 μg), NP-KLH (25 μg)+AICA-riboside (2.5 mg) or NP-KLH (25 μg)+Alum (12.5 μg) in the two rear footpads. 8 days after injection, mice were sacrificed and their posterior lymph nodes were collected and immediately analyzed for size.

Series [8] has as its system BALB/c mice. Briefly: Local inflammatory response at injection site, GR-1 immunohistochemistry (Example 9). It is filed as in vivo. The following applies: rear footpad injection; AICA-riboside 2.5 mg or alum 12.5 μg; 8 or 24 hours. How it is done: BALB/c mice were injected with saline (50 μl PBS), AICA-boside (2.5 mg) or alum (12.5 μg) in the two rear footpads. 8 or 24 hours after treatment mice were sacrificed, and thin sections of the tissues surrounding the injection site (marked by a circle) were analyzed by immunohistochemistry. Inflammatory cells (mostly granulocytes and monocytes) were identified using an antibody directed to the murine GR-1 molecule.

Series [9] has as its system BALB/c mice. In words: Primary antibody response to Ars-KLH with AICAR or 6-MPR, serum ELISA (Example 10). It is filed as in vivo. The following applies: 3 mg i.p. with Ars-KLH 100 μg; for antigen-specific IgG antibodies: vs antigen without adjuvant, day 19. How it is done:
BALB/c micereceived an intraperitoneal injection of Ars-KLH (100 μg), Ars-KLH+AICAR (3 mg) or Ars-KLH+6-MPR (3 mg). 19 days after Immunization, mice were bled and serum levels of antigen specific antibodies were determined by ELISA according to standard procedure using isotype-specific rat Mab.

A further series relates to mice. In words: Serum antibody response in mice to protein antigens mixed with AICA-riboside (general studies). It is filed as in vivo. From the text:
(§1) Although the precise mechanism(s) by which AICA-riboside augments antibody responses in vivo is presently unknown, some points are noteworthy in light of the present invention. […] A qualitative change of the humoral response is also observed, as immunoglobulins of the IgG isotype (generally detected only during the secondary response) are already detected during the primary response in animals treated with antigen/AICA-riboside formulations. […] The immuno-potentiating effect of AICA-riboside in combination with said antigen is as good when the compounds are administered mixed together (co-administered) as when administered separately or sequentially. […] The use of this agent therefore probably precludes local pain after injection.

The test system of the next series is murine lymphocytes. Briefly: In vitro response of murine lymphocytes, cytokine secretion. The series is classed as cell-based.
Text: as §1

For another series, the system named is humans. The settings on record: all dose levels (10 to 100 mg/kg); cited from earlier work.
The subject of series [10] is BALB/c mice. In words: Primary and secondary antibody response to Ars-KLH with oligomycin, serum ELISA (Example 11). It is filed as in vivo. The following applies: oligomycin 10 μg i.p. with Ars-KLH 50 μg, vs antigen alone; primary (day 21) and secondary (14 days after boost). How it is done:
BALB/C mice were injected intraperitoneally with Ars-KLH (50 μg) mixed with saline, AICA-riboside (3 mg) or oligomycin (10 μg). 21 days after immunization, mice were bled and serum levels of Ars-specific antibodies (primary response) were determined by ELISA according to standard procedure using isotype-specific rat mAb. […] On day 22, all mice received a second injection of Ars-KLH (50 μg) intrapertioneally. Mice were bled 14 days after the antigen boost and serum levels of Ars-KLH-specific antibodies (secondary response) were determined by ELISA.

On to `NC(=O)c1ncn([C@@H]2O[C@H](CO)[C@@H](O)[C@H]2O)c1N` [AICA-riboside, 5-aminoimidazole-4-carboxamide riboside], for which the “antigen (NP)-specific antibody response” value in the series with BALB/c mice [1] (AICA-riboside 10 mg co-administered i.p. with NP-KLH 100 μg, vs antigen alone, bled Height days after immunization) is on record as “increased antigen-specific antibody response”; in the series with BALB/c mice [1] (AICA-riboside 10 mg i.p. alone, without antigen), “does not lead to an increased, antigen-specific antibody response”. In addition, in the series with BALB/c mice [2] (10 mg i.p. with Ars-KLH 100 μg, vs antigen without adjuvant), the “antigen-specific IgM response” value is “unaffected”. The “antigen-specific IgG antibodies” value with BALB/c mice [2] (10 mg i.p. with Ars-KLH 100 μg, vs antigen without adjuvant, primary (day 21) and secondary (8 days after boost) response) is “increased levels of antigen-specific IgG antibodies”; in the series on BALB/c mice [9], “increased levels of antigen-specific IgG antibodies”. Also, in the series on BALB/c mice [2] (AICA-riboside 10 mg vs Alum 50 μl, each with Ars-KLH 100 μg i.p.), the “immuno-stimulatory properties compared with Alum” value is “comparable to the Alum adjuvant”. In the series with BALB/c mice [2] (bled 120 days after first encounter with antigen, vs antigen alone), the “antigen-specific response, day 120” value is “long-lasting increase in antigen-specific response”. The “antibody response to protein antigen HGG” value in the series on BALB/c mice [3] is reported as “augments the antibody response”. The “adjuvant activity over dose range” value with BALB/c mice [4] is “can act as an adjuvant over a wide range of doses”. Also, the “adjuvant effect depending on time of injection” value in the series with BALB/c mice [5] is recorded as “only manifest when AICA-riboside is injected at the same moment with the antigen”. The “antigen-specific antibody responses in the absence of CD4-expressing T cells” value in the series with BALB/c mice [6] was “does not augment the antigen-specific antibody responses”. In addition, the “swelling of the lymph node draining the injection site” value in the series on BALB/c mice [7] is recorded as “does not induce the swelling”. Besides, the “GR-1-expressing inflammatory cell recruitment / cellular infiltrates” value with BALB/c mice [8] is on record as “minimal GR-1-expressing cells recruitment to sites distant from the injection site”. Besides, the “tissue necrosis at injection site” value in the series with BALB/c mice [8] is listed as “no tissue necrosis or abnormality”. For the same compound, the “Ars specific antibodies concentrations” value with BALB/c mice [9] (serum 19 days after immunization, Ars-KLH+saline control 0.04) was 1.607 ± 0.521 µg/mL. For the same compound, the “local inflammatory response following injection” value with mice (injection into mice) was “no local inflammatory response was observed”. In the series with mice (mixed in aqueous solutions with protein antigens, mice), the “boost of serum antibody response above unadjuvanted antigens” value was “five to ten folds”. Besides, in the series on murine lymphocytes (in response to bacterial mitogens, lectins or protein antigens), the secretion of cytokines entry was “did not affect the secretion of cytokines”. Besides, in the series on murine lymphocytes (in vitro), the “enhancing effect on in vitro response of murine lymphocytes” value is “no enhancing effect”. Further, the tolerability in humans result with humans is recorded as “well tolerated”.

For `CC[C@H]1/C=C/C=C/C[C@@H](C)[C@H](O)[C@@](C)(O)C(=O)[C@@H](C)[C@H](O)[C@@H](C)C(=O)[C@@H](C)[C@H](O)[C@@H](C)/C=C/C(=O)O[C@@H]2[C@H](C)[C@H](CC1)O[C@]1(CC[C@H](C)[C@H](C[C@@H](C)O)O1)[C@H]2C` [oligomycin], in the series with BALB/c mice [10], the “antigen-specific IgG antibodies” value is listed as “increased levels of antigen-specific IgG antibodies; also recorded: increases antibody responses”.

On to `OC[C@H]1O[C@@H](n2cnc3c(S)ncnc32)[C@H](O)[C@@H]1O` [6-MPR, 6-mercaptopurine riboside], for which the “antigen-specific IgG antibodies” value in the series on BALB/c mice [9] is on record as “increased levels of antigen-specific IgG antibodies”.
